Measured values as given in patent US4436904A, “Cephalosporins” (Kanto Ishi Pharmaceutical Co., Ltd., priority 1981, dated 1984).
≈ marks a conversion by molar mass, not a printed value. Like-named read-outs stand apart in the source and are kept apart here.

How the values were obtained:
Assay in all cases: Minimum inhibitory concentration (MIC), standard method of the Japanese Chemotherapeutic Association
[1] = system: Staphylococcus aureus 209-P; type: cell-based; details: read-out: Minimum Inhibitory Concentration (MIC)
[2] = system: Staphylococcus aureus TERAJIMA; type: cell-based; details: read-out: Minimum Inhibitory Concentration (MIC)
[3] = system: Staphylococcus epidermidis ATCC12228; type: cell-based; details: ATCC12228, Inoculum size: 10^6 cells/ml, read-out: Minimum Inhibitory Concentration (MIC)
[4] = system: Bacillus subtilis ATCC 6633; type: cell-based
Escherichia coli N I H J = type: cell-based; details: read-out: Minimum Inhibitory Concentration (MIC)
Escherichia coli MEGAWA = type: cell-based; details: for MIC: Escherichia coli
Proteus vulgaris = type: cell-based; details: read-out: Minimum Inhibitory Concentration (MIC)
Proteus morganii IID 602 = type: cell-based; details: Morganella morganii
[5] = system: Pseudomonas aeruginosa IFO 13739; type: cell-based
[6] = system: Pseudomonas aeruginosa IFO 3080; type: cell-based
[7] = system: Pseudomonas pudita IID 5121; type: cell-based
[8] = system: Klebsiella pneumoniae IID 865; type: cell-based; details: IID865, Inoculum size: 10^6 cells/ml, read-out: Minimum Inhibitory Concentration (MIC)
[9] = system: Salmonella enteritidis IID 604; type: cell-based; details: Salmonella enterica, read-out: Minimum Inhibitory Concentration (MIC)
[10] = system: Salmonella typhimurium IID 1000; type: cell-based; details: Salmonella enterica, read-out: Minimum Inhibitory Concentration (MIC)
Shigella boydii IID 627 = type: cell-based; details: IID627, Inoculum size: 10^6 cells/ml
Shigella sonnei IID 969 = type: cell-based; details: IID969, Inoculum size: 10^6 cells/ml
[11] = system: Enterobacter aerogenes IID 5206; type: cell-based; details: Klebsiella aerogenes
[12] = system: Enterobacter cloacae IID 977; type: cell-based
[13] = system: Serratia marcenscens IFO 12648; type: cell-based
[14] = system: Salmonella paratyphi IID 605; details: Salmonella enterica, IID605|PARATYPHI, read-out: Minimum Inhibitory Concentration (MIC)
[15] = system: Shigella dysenteriae IID 633; details: IID633, read-out: Minimum Inhibitory Concentration (MIC)
[16] = Inoculum size: 10^6 cells/ml, weight concentration
[17] = ATCC6633, Inoculum size: 10^6 cells/ml, weight concentration, read-out: Minimum Inhibitory Concentration (MIC)
[18] = Inoculum size: 10^6 cells/ml, weight concentration, read-out: Minimum Inhibitory Concentration (MIC)
[19] = IID602, read-out: Minimum Inhibitory Concentration (MIC)
[20] = IFO13739, Inoculum size: 10^6 cells/ml, weight concentration, read-out: Minimum Inhibitory Concentration (MIC)
[21] = IID5121, Inoculum size: 10^6 cells/ml, weight concentration, read-out: Minimum Inhibitory Concentration (MIC)
[22] = IID5206, Inoculum size: 10^6 cells/ml, weight concentration, read-out: Minimum Inhibitory Concentration (MIC)
[23] = IID977, Inoculum size: 10^6 cells/ml, weight concentration, read-out: Minimum Inhibitory Concentration (MIC)
[24] = IFO12648, read-out: Minimum Inhibitory Concentration (MIC)
[25] = IFO3080, read-out: Minimum Inhibitory Concentration (MIC)
[26] = IID5206, read-out: Minimum Inhibitory Concentration (MIC)
[27] = Inoculum size: 10^6 cells/ml, potency concentration

## CC(=O)OCC1=C(C(=O)O)N2C(=O)C(NC(=O)[C@H](NC(=O)N3CCN(N=C4SCCS4)C3=O)c3ccccc3)C2SC1 (single isomer, unassigned) [KI-6203, sodium 7-{D-(-)-α-[(2-oxo-3-(1,3-dithiolan-2-imino)-imidazolidin-1-yl)-carboxamido]-phenylacetamido}-3-acetoxymethyl-3-cephem-4-carboxylate]
[1]; [16]
  MIC: 0.78 µg/mL
[2]
  MIC: 1.56 µg/mL
[3]; weight concentration
  MIC: 0.39 µg/mL
[4]; [17]
  MIC: 0.78 µg/mL
Escherichia coli N I H J; [16]
  MIC: < 0.1 µg/mL
Escherichia coli MEGAWA; [18]
  MIC: 25 µg/mL
Proteus vulgaris
  MIC: 6.25 µg/mL
Proteus morganii IID 602; [19]
  MIC: 6.25 µg/mL
[5]; [20]
  MIC: 12.5 µg/mL
[6]; IFO3080, Inoculum size: 10^6 cells/ml, weight concentration, read-out: Minimum Inhibitory Concentration (MIC)
  MIC: 3.13 µg/mL
[7]; [21]
  MIC: 50 µg/mL
[8]; weight concentration
  MIC: 0.39 µg/mL
[9]
  MIC: 6.25 µg/mL
[10]; [16]
  MIC: 3.13 µg/mL
Shigella boydii IID 627; weight concentration
  MIC: 1.56 µg/mL
Shigella sonnei IID 969; weight concentration
  MIC: 1.56 µg/mL
[11]; [22]
  MIC: 12.5 µg/mL
[12]; [23]
  MIC: 12.5 µg/mL
[13]; [24]
  MIC: 6.25 µg/mL
[14]
  MIC: 6.25 µg/mL
[15]
  MIC: 0.78 µg/mL

## Cc1nnc(SCC2=C(C(=O)O)N3C(=O)C(NC(=O)[C@H](NC(=O)N4CCN(N=C5SCCS5)C4=O)c4ccccc4)C3SC2)s1 (single isomer, unassigned) [TO-180, 7-{D-(-)-α-[(2-oxo-3-(1,3-dithiolan-2-imino)-imidazolidin-1-yl)-carboxamido]-phenylacetoamide}-3-[5-methyl-(1,3,4-thiadiazol-2-yl)-thiomethyl]-3-cephem-4-carboxylic acid]
[1]; [16]
  MIC: 0.39 µg/mL (≈ 0.552 µM)
[2]; [16]
  MIC: 0.39 µg/mL (≈ 0.552 µM)
[3]; weight concentration
  MIC: 0.39 µg/mL (≈ 0.552 µM)
[4]; [17]
  MIC: 0.78 µg/mL (≈ 1.1 µM)
Escherichia coli N I H J; [16]
  MIC: < 0.1 µg/mL
Escherichia coli MEGAWA; [18]
  MIC: 6.25 µg/mL (≈ 8.84 µM)
Proteus vulgaris
  MIC: 1.56 µg/mL (≈ 2.21 µM)
Proteus morganii IID 602; [19]
  MIC: 1.56 µg/mL (≈ 2.21 µM)
[5]; [20]
  MIC: 6.25 µg/mL (≈ 8.84 µM)
[6]; [25]
  MIC: 1.56 µg/mL (≈ 2.21 µM)
[7]; [21]
  MIC: 25 µg/mL (≈ 35.4 µM)
[8]; weight concentration
  MIC: 0.39 µg/mL (≈ 0.552 µM)
[9]
  MIC: 1.56 µg/mL (≈ 2.21 µM)
[10]
  MIC: 1.56 µg/mL (≈ 2.21 µM)
Shigella boydii IID 627; weight concentration
  MIC: 0.39 µg/mL (≈ 0.552 µM)
Shigella sonnei IID 969; weight concentration
  MIC: 0.39 µg/mL (≈ 0.552 µM)
[11]; [22]
  MIC: 3.13 µg/mL (≈ 4.43 µM)
[12]; [23]
  MIC: 3.13 µg/mL (≈ 4.43 µM)
[13]; [24]
  MIC: 1.56 µg/mL (≈ 2.21 µM)
[14]
  MIC: 1.56 µg/mL (≈ 2.21 µM)
[15]
  MIC: 0.39 µg/mL (≈ 0.552 µM)

## Cn1nnnc1SCC1=C(C(=O)O)N2C(=O)C(NC(=O)[C@H](NC(=O)N3CCN(N=C4SCCS4)C3=O)c3ccc(O)cc3)C2SC1 (single isomer, unassigned) [KI-6269, sodium 7-{D-(-)-α-[(2-oxo-3-(1,3-dithiolan-2-imino)-imidazolidin-1-yl)-carboxamido]-4-hydroxyphenylacetamido}-3-[(1-methyl-1,2,3,4-tetrazol-5-yl)-thiomethyl]-3-cephem-4-carboxylate]
[1]
  MIC: 1.56 µg/mL
[2]
  MIC: 1.56 µg/mL
[3]; weight concentration
  MIC: 0.39 µg/mL
[4]; [17]
  MIC: 0.78 µg/mL
Escherichia coli N I H J; [16]
  MIC: < 0.1 µg/mL
Escherichia coli MEGAWA; [18]
  MIC: 6.25 µg/mL
Proteus vulgaris; [16]
  MIC: 0.78 µg/mL
Proteus morganii IID 602; IID602, Inoculum size: 10^6 cells/ml, weight concentration, read-out: Minimum Inhibitory Concentration (MIC)
  MIC: 3.13 µg/mL
[5]; [20]
  MIC: 6.25 µg/mL
[6]; [25]
  MIC: 1.56 µg/mL
[7]; [21]
  MIC: 25 µg/mL
[8]; weight concentration
  MIC: 0.2 µg/mL
[9]
  MIC: 1.56 µg/mL
[10]
  MIC: 1.56 µg/mL
Shigella boydii IID 627; weight concentration
  MIC: < 0.1 µg/mL
Shigella sonnei IID 969; weight concentration
  MIC: 0.2 µg/mL
[11]; [26]
  MIC: 1.56 µg/mL
[12]; [23]
  MIC: 3.13 µg/mL
[13]; [24]
  MIC: 1.56 µg/mL
[14]
  MIC: 1.56 µg/mL
[15]
  MIC: < 0.1 µg/mL

## CN(C)CCn1nnnc1SCC1=C(C(=O)O)N2C(=O)[C@@H](NC(=O)Cc3csc(N)n3)[C@H]2SC1 [CTM, cefotiam, reference compound]
[1]; [27]
  MIC: 0.39 µg/mL (≈ 0.742 µM)
[2]; [27]
  MIC: 0.78 µg/mL (≈ 1.48 µM)
[3]; potency concentration
  MIC: 0.39 µg/mL (≈ 0.742 µM)
[4]; ATCC6633, Inoculum size: 10^6 cells/ml, potency concentration, read-out: Minimum Inhibitory Concentration (MIC)
  MIC: 0.39 µg/mL (≈ 0.742 µM)
Escherichia coli N I H J; [27]
  MIC: < 0.1 µg/mL
Escherichia coli MEGAWA; Inoculum size: 10^6 cells/ml, potency concentration, read-out: Minimum Inhibitory Concentration (MIC)
  MIC: 6.25 µg/mL (≈ 11.9 µM)
Proteus vulgaris; [27]
  MIC: 0.39 µg/mL (≈ 0.742 µM)
Proteus morganii IID 602; IID602, Inoculum size: 10^6 cells/ml, potency concentration, read-out: Minimum Inhibitory Concentration (MIC)
  MIC: 0.39 µg/mL (≈ 0.742 µM)
[5]; IFO13739, Inoculum size: 10^6 cells/ml, potency concentration, read-out: Minimum Inhibitory Concentration (MIC)
  MIC: > 100 µg/mL
[6]; IFO3080, Inoculum size: 10^6 cells/ml, potency concentration, read-out: Minimum Inhibitory Concentration (MIC)
  MIC: > 100 µg/mL
[7]; IID5121, Inoculum size: 10^6 cells/ml, potency concentration, read-out: Minimum Inhibitory Concentration (MIC)
  MIC: > 100 µg/mL
[8]; potency concentration
  MIC: < 0.1 µg/mL
[9]; [27]
  MIC: 0.2 µg/mL (≈ 0.38 µM)
[10]; [27]
  MIC: < 0.1 µg/mL
Shigella boydii IID 627; potency concentration
  MIC: < 0.1 µg/mL
Shigella sonnei IID 969; potency concentration
  MIC: < 0.1 µg/mL
[11]; IID5206, Inoculum size: 10^6 cells/ml, potency concentration, read-out: Minimum Inhibitory Concentration (MIC)
  MIC: 1.56 µg/mL (≈ 2.97 µM)
[12]; IID977, Inoculum size: 10^6 cells/ml, potency concentration, read-out: Minimum Inhibitory Concentration (MIC)
  MIC: 3.13 µg/mL (≈ 5.95 µM)
[13]; IFO12648, Inoculum size: 10^6 cells/ml, potency concentration, read-out: Minimum Inhibitory Concentration (MIC)
  MIC: 25 µg/mL (≈ 47.6 µM)
[14]
  MIC: < 0.1 µg/mL
[15]
  MIC: < 0.1 µg/mL

## CC1=C(C(=O)O)N2C(=O)[C@@H](NC(=O)[C@H](N)c3ccccc3)[C@H]2SC1 [CEX, cephalexin, reference compound]
[4]; ATCC6633, read-out: Minimum Inhibitory Concentration (MIC)
  MIC: 0.78 µg/mL (≈ 2.25 µM)
Escherichia coli N I H J
  MIC: 3.13 µg/mL (≈ 9.01 µM)
Escherichia coli MEGAWA; read-out: Minimum Inhibitory Concentration (MIC), Inoculum size: 10^6 cells/ml, potency concentration
  MIC: > 100 µg/mL
Escherichia coli MEGAWA; [27]
  Minimum Inhibitory Concentration (MIC): < 100 µg/mL
Proteus vulgaris
  MIC: 12.5 µg/mL (≈ 36 µM)
Proteus morganii IID 602; [19]
  MIC: > 100 µg/mL
[5]; IFO13739, read-out: Minimum Inhibitory Concentration (MIC)
  MIC: > 100 µg/mL
[6]; [25]
  MIC: > 100 µg/mL
[7]; IID5121, read-out: Minimum Inhibitory Concentration (MIC)
  MIC: > 100 µg/mL
[9]
  MIC: 6.25 µg/mL (≈ 18 µM)
[10]
  MIC: 3.13 µg/mL (≈ 9.01 µM)
Shigella boydii IID 627; potency concentration
  MIC: 3.13 µg/mL (≈ 9.01 µM)
Shigella sonnei IID 969; potency concentration
  MIC: 6.25 µg/mL (≈ 18 µM)
[11]; [26]
  MIC: > 100 µg/mL
[12]; IID977, read-out: Minimum Inhibitory Concentration (MIC)
  MIC: > 100 µg/mL
[13]; [24]
  MIC: > 100 µg/mL
[14]
  MIC: 12.5 µg/mL (≈ 36 µM)
[15]
  MIC: 3.13 µg/mL (≈ 9.01 µM)
